Our source for the TGI values is PubChem BioAssay (NCI).

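Values below derive from 48-hour exposures of cells grown in 96-well plates, with endpoints linearly interpolated between the two concentrations bracketing the appropriate inhibition level. At the TGI there is no net growth.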

Some test systems named below: BT-549 breast; MDA-MB-231 breast; MDA-N; SW-620 colon; TK-10 renal; COLO 205 colon; NCI-H23 lung; SF-268 CNS; UACC-62 melanoma; ACHN renal; HT29 colon; CAKI-1 renal; HOP-92 NSCLC; K-562 leukemia; MDA-MB-435; SK-MEL-28 melanoma; PC-3 prostate; SK-MEL-5 melanoma; NCI-H522 lung.
What all share (test): NCI tumour cell line growth inhibition, 48 h

Turning to `CCOC(=O)NC`, the TGI with BT-549 breast, with MDA-MB-231 breast, in the test with MDA-N, in the test on SW-620 colon, with TK-10 renal and in the test with COLO 205 colon was above 100 µM each time. Moreover, the TGI in the test with NCI-H23 lung, with SF-268 CNS, with UACC-62 melanoma, with ACHN renal, in the test on HT29 colon and in the test on CAKI-1 renal was above 100 µM throughout. Besides, the TGI in the test on HOP-92 NSCLC, in the test on K-562 leukemia, in the test on MDA-MB-435, in the test on SK-MEL-28 melanoma, in the test with PC-3 prostate and in the test with SK-MEL-5 melanoma was above 100 µM each time.

Regarding `OCc1ccc2c(c1)CC1(C2)Cc2cc3c(cc2C1)CCC3`, the TGI with BT-549 breast is above 100 µM; with MDA-MB-231 breast, above 100 µM; in the test with MDA-N, 1.74 µM; with SW-620 colon, above 31.6 µM; with TK-10 renal, above 79.6 µM; with NCI-H23 lung it was above 100 µM. The TGI is above 27.6 µM with NCI-H522 lung; above 100 µM in the test with SF-268 CNS; above 72.2 µM in the test with UACC-62 melanoma; above 82.4 µM with ACHN renal; above 100 µM in the test with HT29 colon; above 100 µM with CAKI-1 renal. In addition, the TGI in the test on HOP-92 NSCLC was above 74 µM; with K-562 leukemia, above 100 µM; in the test on MDA-MB-435, 0.615 µM; with SK-MEL-28 melanoma, above 100 µM; with PC-3 prostate, above 34.6 µM; in the test on SK-MEL-5 melanoma, above 31.2 µM.

Take `O=C1C[C@@H](Sc2ccccc2)C2(OCCO2)[C@H]2ON3CCC[C@@H]3[C@@H]12`: the TGI amounted to 18.9 µM in the test with BT-549 breast; 7.67 µM with MDA-MB-231 breast; 6.97 µM in the test on MDA-N; 13.5 µM with SW-620 colon; 19.3 µM with TK-10 renal; 6.32 µM in the test with COLO 205 colon. For the same compound, the TGI with NCI-H23 lung stood at 17.9 µM; in the test on SF-268 CNS, 12.1 µM; in the test with UACC-62 melanoma, 24.3 µM; in the test with ACHN renal, 15.2 µM; in the test with HT29 colon, 2.86 µM; in the test with CAKI-1 renal, 15.9 µM. Also, the TGI in the test on HOP-92 NSCLC is 11.4 µM; with K-562 leukemia, 13.8 µM; with MDA-MB-435, 10 µM; in the test with SK-MEL-28 melanoma, 23 µM; with PC-3 prostate it was 20.6 µM.

Turning to `CCN(CC)CCOC(=O)CCN1CC2CCC(CC2)C1`, the TGI in the test with BT-549 breast, with MDA-MB-231 breast, in the test on MDA-N, in the test with SW-620 colon, in the test with TK-10 renal and in the test with COLO 205 colon was above 100 µM each time. The TGI in the test on NCI-H23 lung, in the test on NCI-H522 lung, with UACC-62 melanoma, in the test on ACHN renal, in the test with HT29 colon and in the test on CAKI-1 renal was above 100 µM throughout. The TGI in the test with HOP-92 NSCLC, with K-562 leukemia, in the test on MDA-MB-435, in the test with SK-MEL-28 melanoma, with PC-3 prostate and in the test on SK-MEL-5 melanoma was above 100 µM each time.

Consider `NC1CC(=O)c2csc(Cl)c21` (configuration not stated), for which the TGI with BT-549 breast stood at 33.4 µM; in the test with MDA-MB-231 breast it was 22.5 µM; in the test on MDA-N, 22 µM; with TK-10 renal, 24.1 µM; in the test with COLO 205 colon, 12.1 µM; in the test with NCI-H23 lung, 54 µM. In addition, the TGI with NCI-H522 lung amounted to 3.32 µM; with SF-268 CNS, 31.8 µM; in the test on UACC-62 melanoma it was 24.7 µM; with ACHN renal, 10.3 µM; in the test with HT29 colon, 29.2 µM; with CAKI-1 renal, 3.68 µM. Moreover, the TGI is 25.4 µM in the test on HOP-92 NSCLC; above 100 µM in the test with K-562 leukemia; 27.3 µM with MDA-MB-435; 46.3 µM with SK-MEL-28 melanoma; 23.9 µM in the test with PC-3 prostate; 35.3 µM in the test on SK-MEL-5 melanoma.

With `CCN1C(=O)c2ccccc2C1(O)c1ccc(Cl)cc1` (configuration not stated), the TGI in the test with BT-549 breast, with MDA-MB-231 breast, in the test on MDA-N, in the test on SW-620 colon, in the test on TK-10 renal and in the test on COLO 205 colon was above 100 µM throughout. The TGI in the test on NCI-H23 lung, in the test on SF-268 CNS, with UACC-62 melanoma, in the test with ACHN renal, in the test on HT29 colon and with CAKI-1 renal was above 100 µM in each case. In addition, the TGI was above 100 µM in the test on HOP-92 NSCLC; above 100 µM in the test with K-562 leukemia; above 100 µM in the test with MDA-MB-435; above 100 µM in the test with SK-MEL-28 melanoma; 80.6 µM in the test on PC-3 prostate; above 100 µM in the test on SK-MEL-5 melanoma.

With `Cc1ccsc1C(=O)C(CC(=O)c1cccs1)c1ccsc1` (configuration not stated), the TGI in the test on BT-549 breast, with MDA-MB-231 breast, with MDA-N, with SW-620 colon, in the test on TK-10 renal and in the test on COLO 205 colon was above 100 µM in each case. Moreover, the TGI in the test with NCI-H23 lung, with NCI-H522 lung, in the test with SF-268 CNS, in the test on ACHN renal, with HT29 colon and with CAKI-1 renal was above 100 µM in each case. The TGI in the test on HOP-92 NSCLC, with K-562 leukemia, in the test on MDA-MB-435, with SK-MEL-28 melanoma, in the test with PC-3 prostate and with SK-MEL-5 melanoma was above 100 µM in each case.

As to `COc1ccc(N2C(=O)c3cccnc3S2(=O)=O)cc1`, the TGI in the test on BT-549 breast, with MDA-MB-231 breast, in the test on MDA-N, with SW-620 colon, in the test with COLO 205 colon and in the test with NCI-H23 lung was above 100 µM throughout. Also, the TGI in the test with NCI-H522 lung, with SF-268 CNS, with UACC-62 melanoma, in the test on ACHN renal, in the test with HT29 colon and in the test on CAKI-1 renal was above 100 µM in each case. In addition, the TGI with HOP-92 NSCLC, in the test with K-562 leukemia, in the test with MDA-MB-435, with SK-MEL-28 melanoma and in the test with PC-3 prostate was above 100 µM each time.

In the case of `CCO/C=N/C1=C(C#N)C(c2ccc(Cl)cc2)c2c(-c3ccccc3)nn(-c3ccccc3)c2O1` (configuration not stated), the TGI in the test with BT-549 breast was 31.5 µM; in the test on MDA-MB-231 breast, above 67 µM; in the test on MDA-N it was 45.8 µM; with SW-620 colon, above 66.5 µM; in the test on TK-10 renal it was 14.2 µM; in the test on COLO 205 colon, above 100 µM. The TGI in the test with NCI-H23 lung is 24.5 µM; in the test on NCI-H522 lung, 18.2 µM; in the test with SF-268 CNS, 29.9 µM; in the test with UACC-62 melanoma, 33.5 µM; in the test on ACHN renal it was 29.5 µM; in the test on HT29 colon, 64.9 µM. In addition, the TGI with CAKI-1 renal is 36 µM; in the test on HOP-92 NSCLC, 29.1 µM; in the test with K-562 leukemia, above 100 µM; with MDA-MB-435, 35.8 µM; with SK-MEL-28 melanoma, 39.5 µM; in the test with PC-3 prostate, 22.7 µM.

In the case of `Cc1ccc(C(CC(=O)C(C)(C)CN2CCCCC2)SCCS(=O)(=O)O)cc1` (configuration not stated), the TGI with BT-549 breast is above 100 µM; with MDA-MB-231 breast it was above 100 µM; in the test on MDA-N it was above 100 µM; in the test with SW-620 colon, 62.8 µM; in the test on TK-10 renal, 86 µM; in the test on COLO 205 colon, 35.3 µM. The TGI in the test with NCI-H23 lung is 86.5 µM; with NCI-H522 lung, 51.2 µM; in the test with SF-268 CNS, above 100 µM; with UACC-62 melanoma, 46.8 µM; with ACHN renal it was 70.8 µM; with HT29 colon, 72.8 µM. In addition, the TGI with CAKI-1 renal is 51 µM; in the test on HOP-92 NSCLC it was 42.3 µM; with K-562 leukemia, 51.4 µM; in the test on MDA-MB-435, 57.7 µM; in the test with PC-3 prostate, above 100 µM; in the test with SK-MEL-5 melanoma, 46.5 µM.

Turning to `CCCN(CCC)c1cc2c(cc1F)c(=O)c(C(=O)O)cn2-c1ccc(N2CCN(C)CC2)cn1`, the TGI is 25 µM with BT-549 breast; 27.1 µM with MDA-MB-231 breast; 40.1 µM with MDA-N; 48.2 µM in the test on SW-620 colon; 23.1 µM with TK-10 renal; 27.1 µM in the test with COLO 205 colon. For the same compound, the TGI in the test on NCI-H23 lung amounted to 35 µM; with NCI-H522 lung, 24.9 µM; in the test with SF-268 CNS it was 30.7 µM; in the test on UACC-62 melanoma it was 39.6 µM; with HT29 colon, 30.5 µM; in the test on CAKI-1 renal it was 32.5 µM. Further, the TGI with HOP-92 NSCLC worked out at 28.7 µM; with K-562 leukemia, 55.1 µM; in the test with MDA-MB-435, 38.9 µM; in the test with SK-MEL-28 melanoma, 36.5 µM; in the test with PC-3 prostate it was 39.3 µM.

On to `CC(=O)c1nc2ccccc2n1CC(=O)c1ccc(Cl)cc1`, for which the TGI in the test with BT-549 breast is above 100 µM; with MDA-MB-231 breast it was above 100 µM; with MDA-N, above 100 µM; in the test with SW-620 colon, 44 µM; with TK-10 renal, above 100 µM; in the test with COLO 205 colon, 53 µM. Also, the TGI with NCI-H23 lung is above 100 µM; in the test on NCI-H522 lung, 23 µM; with SF-268 CNS it was above 100 µM; with UACC-62 melanoma it was 27.8 µM; in the test on HT29 colon, 35.4 µM; with CAKI-1 renal it was above 100 µM. For the same compound, the TGI is 22.5 µM in the test with HOP-92 NSCLC; above 100 µM in the test on K-562 leukemia; above 100 µM in the test on MDA-MB-435; above 100 µM in the test on SK-MEL-28 melanoma; 60.1 µM in the test on PC-3 prostate.
